According to patent publication US20090270404A1, “OXYMETHYLENE ARYL COMPOUNDS AND USES THEREOF” (Metabolex, Inc., priority 2008, published 2009):

Experiments:
C57Bl/6J mice = assay: Oral glucose tolerance test in mice (with sitagliptin); assay type: in vivo; settings: glucose 2 g/kg, FIG. 1
Experimental: C57Bl/6J mice were fasted for 6 hours prior to drug administration. Blood glucose was measured after the 6 hour fast (T30 min), and animals were sorted into groups evenly matched for fasting glucose levels. At T30, drug suspension was administered to the mice by oral gavage. Glucose was administered at TO min at 2 g/kg. The administration volume was 5 mL/kg of body weight. Blood was sampled at TO, prior to glucose administration, then at 15, 30, 60, 90 and 120 min after glucose administration for measurement of glucose by glucometer. 10 mice were used for each dose group. The formulation of 5-Ethyl-2-{4-[4-(4-tetrazol-1-yl-phenoxymethyl)-thiazol-2-yl]-piperidin-1-yl}-pyrimidine and sitagliptin was 1% carboxymethylcellulose, 2% Tween 80 prepared in a manner essentially as described in Example 2. The formulation was a suspension and was continuously stirred during dosing of the animals.
Glucose levels were plotted against time and the incremental area under the curve (AUC) of the glucose excursion was determined from T0 to T120 using GraphPad Prism 5.1. Statistical significance of differences in AUC between compound treatment and vehicle was determined by non-parametric Kruskal-Wallis test with Dunn's post test. […] Statistical differences in the glucose levels at each time point during OGTT were determined by two way ANOVA with Bonferroni's post test. […]

mice = assay: Incretin secretion of mice, dose response on top of sitagliptin; assay type: in vivo; settings: increasing dosages (1, 3, 10, 30 and 300 mg/kg) given in addition to sitapliptin at 100 mg/kg, 10 minutes after glucose, FIG. 5a
Experimental: 5-Ethyl-2-{4-[4-(4-tetrazol-1-yl-phenoxymethyl)-thiazol-2-yl]-piperidin-1-yl}-pyrimidine, sitagliptin, and vildagliptin were prepared as in Examples 1 and 2.
Mice were fasted for 6 h prior to drug administration. Blood glucose was measured after the 6 h fast (T30 min), and animals were sorted into 6 groups evenly matched for fasting glucose levels and body weight. At T30 min, drug suspension as prepared in Example 1 herein, was administered to the mice by oral gavage. All groups were given sitagliptin at 100 mg/kg, and Compound 1 was given at 1, 3, 10, 30 and 300 mg/kg. 100 mg/kg sitagliptin was chosen since this dose is greater than that required to achieve 80% DPP-IV inhibition in mice over the time period evaluated in this study. (Kim et al, 2005). Glucose (2 g/kg) was administered by oral gavage at T0. Animals were anesthetized and blood drawn by terminal cardiac puncture 10 minutes after glucose administration. To address the effects on incretin production, total GIP levels were measured. […] The DPP-IV inhibitor sitagliptin was co-administered to prevent breakdown of active GLP-1 by DPP-IV (Kim et al; 2005). Statistical significance of differences in GLP-1, GIP and glucose levels between compound+sitagliptin treatment and sitagliptin alone was determined by one way ANOVA with Dunnet's post test. Differences with a p value less than 0.05 were considered significant. […]

Row | SMILES | incremental AUC of the glucose excursion T0 to T120 (C57Bl/6J mice; compound only at 30 mg/kg oral gavage) | secretion of active GLP-1 (mice) | incremental AUC of the glucose excursion T0 to T120 (C57Bl/6J mice; sitagliptin alone at 10 mg/kg oral gavage)
1 | CCc1cnc(N2CCC(c3nc(COc4ccc(-n5cnnn5)cc4)cs3)CC2)nc1 [5-Ethyl-2-{4-[4-(4-tetrazol-1-yl-phenoxymethyl)-thiazol-2-yl]-piperidin-1-yl}-pyrimidine] | approximately 3200 mg.min/dl | stimulated secretion of active GLP-1 | –
2 | N[C@@H](CC(=O)N1CCn2c(nnc2C(F)(F)F)C1)Cc1cc(F)c(F)cc1F [sitagliption, sitagliptin, reference compound] | – | – | approximately 2800 mg.min/dl
